Among the data in PubChem BioAssay (NCI) are TGI and GI50 values, retold here.

Some test systems named below: COLO 205 colon; HOP-62 NSCLC; HT29 colon; PC-3 prostate; RPMI-8226 leukemia; SF-295 CNS; SK-MEL-28 melanoma; UACC-257 melanoma; UACC-62 melanoma; A498 renal.
Common to all, as to test: inhibition of tumour cell growth, NCI panel, 48 h

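Cultured in 96-well plates, cells were exposed to test compound for 48 hours across five concentrations. GI50 = concentration required for 50% inhibition of growth. TGI is the concentration that stops growth completely.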 Where only a bound is given, the exact number is not on record here.

`CCOc1ncn(-c2ccc(NC(=S)Nc3cccc(O)c3)cc2)n1`: the TGI in the test with COLO 205 colon, in the test on HOP-62 NSCLC, with HT29 colon, in the test on PC-3 prostate, in the test with RPMI-8226 leukemia and in the test on SF-295 CNS was above 100 µM throughout. Moreover, the TGI in the test with SK-MEL-28 melanoma, with UACC-257 melanoma and with UACC-62 melanoma was above 100 µM in each case.

For the molecule `COc1ccc(C(=O)C2CC3(CCC2(O)c2ccc(OC)cc2)CC(=O)Nc2ccccc2C3=O)cc1` (configuration not stated), the TGI in the test on A498 renal, in the test on COLO 205 colon, with HOP-62 NSCLC, with HT29 colon, in the test on PC-3 prostate and in the test with SF-295 CNS was above 100 µM in each case. Moreover, the TGI with UACC-257 melanoma and in the test on UACC-62 melanoma was above 100 µM throughout.

In the case of `CO/C(=N\N=C(/C)C(F)(F)F)c1ccncc1`, the TGI in the test on A498 renal, in the test with COLO 205 colon, in the test with HOP-62 NSCLC, in the test on HT29 colon, in the test with PC-3 prostate and with RPMI-8226 leukemia was above 100 µM in each case. For the same molecule, the TGI in the test with SK-MEL-28 melanoma and in the test with UACC-62 melanoma was above 100 µM each time.

In the case of `COC[C@H]1C(=O)NCC(=O)N2NCCC[C@H]2C(=O)N(O)[C@H](C)C(=O)O[C@@H](C(C)C)[C@H](NC(=O)[C@](C)(O)[C@]2(O)CC[C@@H](CC(C)C)[C@H](C)O2)C(=O)N2NCCC[C@@H]2C(=O)N1O`, the GI50 in the test with COLO 205 colon is 0.0139 µM; with HOP-62 NSCLC, below 0.01 µM; with HT29 colon, 0.0144 µM; with PC-3 prostate it was 0.0174 µM; in the test on SK-MEL-28 melanoma it was below 0.01 µM; in the test with UACC-257 melanoma, 0.015 µM. Also, in the test on UACC-62 melanoma, the GI50 is 0.0154 µM. In addition, the TGI in the test on COLO 205 colon was determined as 0.0284 µM; in the test with HOP-62 NSCLC, 0.0149 µM; with HT29 colon, 0.0293 µM; in the test on PC-3 prostate it was 0.0326 µM; in the test on SK-MEL-28 melanoma, 0.0221 µM; with UACC-257 melanoma, 0.0292 µM. In addition, the TGI in the test with UACC-62 melanoma was found to be 0.0312 µM.

On to `ClCCN(CCCl)Cc1ccc(Nc2ccnc3cc(Cl)ccc23)cc1`, for which the GI50 in the test on HOP-62 NSCLC is 1.34 µM; in the test with HT29 colon, 1.28 µM; in the test on PC-3 prostate, 1.57 µM; in the test on RPMI-8226 leukemia it was 1.72 µM; in the test on SF-295 CNS, 2.08 µM; in the test on SK-MEL-28 melanoma it was 2.15 µM. In addition, in the test on UACC-257 melanoma, the GI50 was 1.9 µM. In addition, the TGI is 5.16 µM with HOP-62 NSCLC; 4.73 µM with HT29 colon; 5.71 µM with PC-3 prostate; 5.41 µM with RPMI-8226 leukemia; 6.98 µM in the test on SF-295 CNS; 5.31 µM with SK-MEL-28 melanoma. For the same molecule, the TGI in the test on UACC-257 melanoma is 5.71 µM.

As for `COc1ccc2c(O)c3[n+](cc2c1OC)CCc1cc2c(cc1-3)OCO2`, the TGI with A498 renal, in the test with COLO 205 colon, in the test on HOP-62 NSCLC, with HT29 colon, with PC-3 prostate and in the test with RPMI-8226 leukemia was above 100 µM throughout. Further, the TGI in the test with SF-295 CNS, in the test with UACC-257 melanoma and in the test on UACC-62 melanoma was above 100 µM in each case.
